The target of one experiment is T1, CDK5/p25 (Homo sapiens, UniProt Q00535).
T1 construct: made in house
Briefly: In vitro kinase assay CDK5/p25, [γ-33P]ATP, histone H1 substrate. Format: biochemical. The procedure:
(§1) It was also tested as positive control and its IC50 values were compared to those obtained for the compounds under study.
(§2) Buffer A: MgCl2 (10 mM), 1 mM ethylene glycol-bis(2-aminoethylether)-N,N,N’,N’- tetraacetic acid (EGTA), 1 mM dithiothreitol (DTT), 25 mM Tris-HCl pH 7.5, 50 μg heparin/mL. Buffer B: β-Glycerophosphate (60 mM), 30 mM p-nitrophenylphosphate, 25 mM 3-(N-morpholino) propanesulfonic acid (Mops) (pH 7.2), 5 mM EGTA, 15 mM MgCl2, 1 mM DTT, 0.1 mM sodium vanadate.
(§3) Blank values were substracted and activities expressed in % of the maximal activity, i.e., in the absence of inhibitors. Controls were performed with appropriate dilutions of dimethylsulfoxide (DMSO). IC50 values were calculated from dose-response curves established by Sigma-Plot graphs. The GSK-3, CK1, DYRK1A and CLK1 peptide substrates were obtained from Proteogenix (Oberhausbergen, France).
(§4) CDK5/p25. (Human, recombinant) was prepared as previously described. […] ATP (3000 Ci/mmol; 10 mCi/mL) in a final volume of 30 μL. After 30 min incubation at 30 °C, 25 μL aliquots of supernatant were spotted onto sheets of P81 phosphocellulose paper (Whatman) and 20 s later, the filters were washed eight times (for at least 5 min each time) in a solution of 10 mL phosphoric acid/L of water. The wet filters were counted in the presence of 1 mL ACS (Amersham, UK) scintillation fluid.

The next experiment has as its target CK1δ/ε. Briefly: In vitro kinase assay CK1δ/ε, CK1-specific peptide substrate. Format: biochemical, Porcine. The settings on record: 15 μM ATP, 30 min, 30 °C, triplicate; <50% inhibition at 10 μM = IC50 >10 μM. The procedure: as §1, §2, §3, §4
CK1δ/ε. (Porcine brain, native) was assayed as described for CDK5/p25 but using the CK1-specific peptide substrate […]pSAYSITA [37].

Experiment [1] deals with T2, DYRK1A (Rattus norvegicus, UniProt Q63470). Briefly: In vitro kinase assay DYRK1A, Woodtide substrate. Format: biochemical. The procedure:
as §1, §2, §3, §4

The target in another experiment is GSK-3α/β. The experiment can be described thus: In vitro kinase assay GSK-3α/β, GS-1 peptide substrate. Format: biochemical, Porcine. How it is done:
as §1, §2, §3, §4
GSK-3α/β. (Porcine brain, native) was assayed, as described for CDK5/p25 but in buffer A and using a GSK-3 specific substrate (GS-1: […]pSEDEEE) (pS stands for phosphorylated serine).

In experiment [2] the target is T3, CLK1 (Homo sapiens, UniProt P49759). The settings on record: read-out: CLK1 IC50, 15 μM ATP, 30 min, 30 °C, triplicate.
T3 sequence (P49759 whole entry): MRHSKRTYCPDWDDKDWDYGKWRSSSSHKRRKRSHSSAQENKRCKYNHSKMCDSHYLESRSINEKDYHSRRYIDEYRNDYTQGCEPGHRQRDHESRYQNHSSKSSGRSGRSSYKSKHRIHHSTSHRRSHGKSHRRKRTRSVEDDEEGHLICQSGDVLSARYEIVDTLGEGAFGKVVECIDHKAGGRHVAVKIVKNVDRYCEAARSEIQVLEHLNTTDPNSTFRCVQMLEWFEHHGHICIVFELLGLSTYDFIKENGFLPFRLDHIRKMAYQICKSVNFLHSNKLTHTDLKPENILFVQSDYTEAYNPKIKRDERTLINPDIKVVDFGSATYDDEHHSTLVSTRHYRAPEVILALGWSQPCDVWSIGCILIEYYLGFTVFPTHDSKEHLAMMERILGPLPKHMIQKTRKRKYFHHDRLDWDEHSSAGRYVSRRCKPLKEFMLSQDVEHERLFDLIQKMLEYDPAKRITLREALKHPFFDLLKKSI
The target in experiment [3] is T3, CLK1. The experiment can be described thus: biochemical.
The target in experiment [4] is T2, DYRK1A. Briefly: DYRK1A inhibition of earlier compounds I and II (Figure 2). The settings on record: list of targeted kinases extended for earlier compounds. Format: biochemical.
The subject of a further experiment is CDK1. Further details: method as in PMID 17981370, PMID 16644220. The settings on record: Figure 2; earlier work; cited from earlier work.
The mark [5] stands for this setting: 15 μM ATP, 30 min, 30 °C, triplicate, <50% inhibition at 10 μM = IC50 >10 μM.
Where [6] appears, read: 15 μM ATP, 30 min, 30 °C, triplicate, <50% inhibition at 10 μM = IC50 >10 μM, read-out: DYRK1A IC50.

Where two headings read alike, the source gives them in different places.

T1 sequence (Q00535 whole entry): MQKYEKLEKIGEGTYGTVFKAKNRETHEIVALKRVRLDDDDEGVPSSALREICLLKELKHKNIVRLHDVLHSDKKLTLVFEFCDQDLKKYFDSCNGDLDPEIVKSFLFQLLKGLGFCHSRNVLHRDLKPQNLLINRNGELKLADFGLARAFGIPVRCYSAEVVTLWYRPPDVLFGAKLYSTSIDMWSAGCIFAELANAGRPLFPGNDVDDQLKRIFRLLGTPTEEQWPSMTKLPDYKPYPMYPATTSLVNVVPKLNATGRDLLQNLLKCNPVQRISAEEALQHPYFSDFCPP
T1 sequence (Q15078 99-307 partner limits assumed): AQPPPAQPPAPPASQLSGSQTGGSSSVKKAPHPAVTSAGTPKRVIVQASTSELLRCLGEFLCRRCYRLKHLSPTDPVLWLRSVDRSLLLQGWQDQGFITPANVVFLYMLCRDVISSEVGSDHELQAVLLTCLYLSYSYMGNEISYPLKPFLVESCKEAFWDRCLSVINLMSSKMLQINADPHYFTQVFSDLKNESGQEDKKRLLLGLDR

The IC50 is the midpoint of a concentration-inhibition curve. For `COCCn1cnc2ccc3nc(C(=N)OC)sc3c2c1=O` [Compound 12b, Methyl 8-(2-methoxyethyl)-9-oxo-8,9-dihydrothiazolo[5,4-f]quinazoline-2-carbimidate], the IC50 on CDK5/p25 (setting [5]) is > 10 µM; against CK1δ/ε, > 10 µM; on DYRK1A [1] (setting [6]) it was 0.39 µM; on GSK-3α/β, 1.2 µM; on CLK1 [2] it was 0.51 µM.

As for `COC(=N)c1nc2ccc3ncn(CCN(C)C)c(=O)c3c2s1` [Compound 12i, Methyl 8-[(3-dimethylamino)ethyl]-9-oxo-8,9-dihydrothiazolo[5,4-f]quinazoline-2-carbimidate], the IC50 at CDK5/p25 (setting [5]) was > 10 µM; against CK1δ/ε it was > 10 µM; on DYRK1A [1] (setting [6]), 1 µM; on GSK-3α/β, 1.8 µM; on CLK1 [2], 1.8 µM.

Consider `CC(C)n1cnc2ccc3nc(C(=N)OCc4ccccc4)sc3c2c1=O` [Compound 13d, Benzyl 8-isopropyl-9-oxo-8,9-dihydro[1, 3]thiazolo[5,4-f]quinazoline-2-carbimidate], for which the IC50 at CDK5/p25 (setting [5]) was > 10 µM; at CK1δ/ε, > 10 µM; against GSK-3α/β it was 0.057 µM; on CLK1 [2] it was 0.27 µM.

Regarding `N=C(OCc1ccccc1)c1nc2ccc3ncn(C4CCCCC4)c(=O)c3c2s1` [Compound 13g, Benzyl 8-cyclohexyl-9-oxo-8,9-dihydrothiazolo[5,4-f]quinazoline-2-carbimidate], the IC50 against CDK5/p25 was > 10 µM; on CK1δ/ε, > 10 µM; against DYRK1A [1], 0.28 µM; against GSK-3α/β it was 0.083 µM; on CLK1 [3], 1.3 µM.

On to `CN(C)n1cnc2ccc3nc(C(=N)OCc4ccccc4)sc3c2c1=O` [Compound 13h, Benzyl 8-dimethylamino-9-oxo-8,9-dihydrothiazolo[5,4-f]quinazoline-2-carbimidate], for which the IC50 on CDK5/p25 was > 10 µM; against CK1δ/ε, > 10 µM; against DYRK1A [1], 0.21 µM; at GSK-3α/β, 0.15 µM; at CLK1 [3] it was 1.4 µM.

Consider `CCOC(=N)c1nc2ccc3ncn(C4CC4)c(=O)c3c2s1` [Compound 14a, Ethyl 8-cyclopropyl-9-oxo-8,9-dihydrothiazolo[5,4-f]quinazoline-2-carbimidate], for which the IC50 against CDK5/p25 is > 10 µM; on CK1δ/ε it was > 10 µM; against DYRK1A [1], 0.21 µM; against GSK-3α/β, 0.2 µM; against CLK1 [3], 0.1 µM.

With `CCOC(=N)c1nc2ccc3ncn(CCOC)c(=O)c3c2s1` [Compound 14b, Ethyl 8-(2-methoxyethyl)-9-oxo-8,9-dihydrothiazolo[5,4-f]quinazoline-2-carboximidoate], the IC50 at CDK5/p25 was > 10 µM; at CK1δ/ε it was > 10 µM; on DYRK1A [1], 0.82 µM; against GSK-3α/β, 1.2 µM; against CLK1 [3], 1.9 µM.

In the case of `CCOC(=N)c1nc2ccc3ncn(CCCOC)c(=O)c3c2s1` [Compound 14c, Ethyl 8-(3-methoxypropyl)-9-oxo-8,9-dihydrothiazolo[5,4-f]quinazoline-2-carboximidoate], the 50% inhibitory concentration (IC50) was > 10 µM against CDK5/p25; > 10 µM at CK1δ/ε; 0.37 µM at DYRK1A [1]; 0.17 µM at GSK-3α/β; 0.49 µM against CLK1 [3].

As to `CCOC(=N)c1nc2ccc3ncn(C4CCCC4)c(=O)c3c2s1` [Compound 14e, Ethyl 8-cyclopentyl-9-oxo-8,9-dihydrothiazolo[5,4-f]quinazoline-2-carbimidate], the IC50 was > 10 µM against CDK5/p25; > 10 µM against CK1δ/ε; 0.23 µM on DYRK1A [1]; 0.029 µM at GSK-3α/β; 0.78 µM against CLK1 [3].

In the case of `CC(C)OC(=N)c1nc2ccc3ncn(C4CC4)c(=O)c3c2s1` [Compound 15a, Isopropyl 8-cyclopropyl-9-oxo-8,9-dihydrothiazolo[5,4-f]quinazoline-2-carbimidate], the IC50 at CDK5/p25 is > 10 µM; at CK1δ/ε, > 10 µM; against DYRK1A [1], 0.42 µM; on GSK-3α/β, 0.42 µM; against CLK1 [3], 0.043 µM.

Regarding `COCCn1cnc2ccc3nc(C(=N)OC(C)C)sc3c2c1=O` [Compound 15b, Isopropyl 8-(2-methoxyethyl)-9-oxo-8,9-dihydro[1, 3]thiazolo[5,4-f]quinazoline-2-carboximidate], the IC50 at CDK5/p25 (setting [5]) was > 10 µM; on CK1δ/ε, > 10 µM; at DYRK1A [1] (setting [6]) it was 3.9 µM; on GSK-3α/β, 2.5 µM; on CLK1 [2] it was 2.1 µM.

Take `COCCCn1cnc2ccc3nc(C(=N)OC(C)C)sc3c2c1=O` [Compound 15c, Isopropyl 8-(3-methoxypropyl)-9-oxo-8,9-dihydro[1, 3]thiazolo[5,4-f]quinazoline-2-carboximidate]: the IC50 is > 10 µM at CDK5/p25 (setting [5]); > 10 µM on CK1δ/ε; 0.95 µM at DYRK1A [1] (setting [6]); 0.27 µM against GSK-3α/β; 1.2 µM on CLK1 [2].

Regarding `CCn1cnc2ccc3nc(C(=N)OCc4ccccc4)sc3c2c1=O` [II], on DYRK1A [4], the “DYRK1A IC50” value is on record as “micromolar” and the midpoint of inhibition, the IC50, lay at 1.5 µM. For the same compound, in the experiment on CDK1, the “CDK1 IC50” value is on record as “micromolar range” and the IC50 is 1.3 µM.

These data come from PMC6273584, “Synthesis of Thiazolo[5,4-f]quinazolin-9(8H)-ones as Multi-Target Directed Ligands of Ser/Thr Kinases” (Molecules, 2016).
